The conditions of data set [1]: microsomes.
Experimental: (§1) Blank incubation plates T60 and NCF60 were preheated for 10 min; liver microsome was diluted to 0.56 mg/mL in 100 mM phosphate buffer, 445 μL of the microsome working solution (0.56 mg/mL) was transferred to the preheated “incubation” plates T60 and NCF60, and then the incubation plates T60 and NCF60 were pre-incubated with continuous shaking at 37° C. for 10 min. 54 μL of the liver microsome was transferred to a blank plate, then 6 μL of a NAPDH cofactor was added to the blank plate, and then 180 μL of a quenching solution was added to the blank plate; 5 µL of a composite working solution (100 μM) was added to each of the microsome-containing incubation plates (T60 and NCF60), and the mixture was thoroughly mixed 3 times; 50 μL of a buffer was added to the NCF60 plate, and the mixture was thoroughly mixed 3 times. Timing was started; the plates were incubated with shaking at 37° C. for 60 min; and 180 μL of a quenching solution and 6 μL of the NAPDH cofactor were added to a quenching plate TO. The plates were ensured to be cooled to prevent evaporation. For the T60 plate, the mixture was thoroughly mixed 3 times, and 54 μL of the mixture was immediately transferred to the quenching plate at the time point of 0 min. Then, 44 μL of the NAPDH cofactor was added to the incubation plate (T60). Timing was started; and the plate was incubated with shaking at 37° C. for 60 min. At 5, 15, 30, 45, and 60 min, 180 μL of the quenching solution was added to the quenching plate, mixed once, and then 60 μL of sample was continuously transferred from the plate T60 to the quenching plate at each time point.
(§2) For NCF60, the mixture was mixed once, and at the time point of 60 min, 60 μL of sample was transferred from the NCF60 incubator to the quenching solution-containing quenching plate. All sampling plates were shaken for 10 min, then centrifuged at 4,000 rpm at 4° C. for 20 min. 80 µL of the supernatant was transferred to 240 μL of HPLC water, and mixed using a plate shaker for 10 min.
For data set [2] the following is noted: microsomes. This is another data set of the same source.
Experimental: as §1, §2
Data set [3] has as its system secretion levels of IL-6 in PBMC cells. As to the kind of experiment: Inhibition of R848-induced IL-6 secretion in PBMC (IL-6 ELISA). Type of data set: cell-based. The settings on record: human PBMC, 20 h compound pre-incubation, 24 h stimulation. The method, then:
This experiment was carried out in RPMI 1640 medium containing 10% FBS/1% penicillin/streptomycin, with each of the compounds at an initial test concentration of 1 μM. The compound DMSO was dissolved to form a stock solution, which was gradiently diluted 4-fold with the culture medium to a 4× working solution concentration. The diluted solution was added to a 96-well plate with 50 μL per well. PBMC (batch No.: HPP20062307, Sichuan Hope Bio-tech Co., Ltd.) cells were counted, and diluted to a concentration of 2×10^6/mL. The diluted cells were added to the above compound-containing 96-well plate with 150 μL per well, fully mixed, and incubated in an incubator with 5% CO2 at 37° C. for 20 h. Then, R848 was further added until a final concentration of […], and the cells were further incubated in the incubator with 5% CO2 at 37° C. for additional 24 h. Then, after centrifugation at 2,000 rpm for 4 min, the supernatant was diluted 110×, and detected using an IL-6 ELISA kit. An OD450 value was read, and converted to an IL-6 concentration based on a standard curve, to calculate an IC50 value by fitting a dose-effect curve using GraphPad 5.0.

Data set [4] can be described thus: Metabolic stability in mouse liver microsome. The settings on record: liver microsomes. On the technique in general: Liver microsomes are a subcellular fraction often used to study metabolism.
Experimental: as §1, §2
The nature of data set [5]: Metabolic stability in human liver microsome. The note with it: liver microsomes.
Experimental: as §1, §2
Data set [6] can be described thus: Pharmacokinetic experiment on SD rats (iv and ig). The data set is classed as in vivo. The settings on record: Sprague-Dawley, rat, plasma; for Cmax: read-out: Peak plasma concentration Cmax. The method, then: Pharmacokinetic experiment on SD rats: in this experiment, two administration modes: oral intragastric administration and tail vein injection were selected. Each of the compounds of the present patented invention was administered at an oral dose of 5 mg/kg at an administration volume of 10 mL/kg. […] Appropriate amounts of Solutol and H2O were proportionally added sequentially, and fully mixed ultrasonically by vortexing, to prepare a clear drug solution at 0.5 mg/mL. ICL004-protodrug was administered by intravenous injection at a dose of 1 mg/kg at an administration volume of 10 mL/kg. Right before use, an appropriate amount of the drug was accurately weighed, to prepare a final volume of 20% PEG 400 and 80% Saline. Appropriate amounts of PEG 400 and Saline were proportionally added sequentially, and fully mixed ultrasonically by vortexing, to prepare a clear drug solution at 0.1 mg/mL.
6 SD rats, each with body weight of 180-220 g, were randomly grouped into 2 groups. After fasting but with free access to water overnight, each […] in the first group was administered by gavage. 200 μL of blood was sampled from its eye socket into an anticoagulant tube respectively at each time point of 15 min, 30 min, 1 h, 2 h, 4 h, 6 h, 8 h, and 24 h after administration. Within one h, each of the blood samples was centrifuged at 10,000 rpm at 4° C. for 20 min (the sample was stored on an ice box prior to the centrifugation), and the supernatant (i.e., the plasma) was stored in a refrigerator at −20° C. for LC-MS/MS analysis. 200 μL of blood was sampled from the eye socket of each […] in the second group into an anticoagulant tube respectively at each time point of 5 min, 15 min, 30 min, 1 h, 2 h, 4 h, 8 h, and 24 h after administration by intravenous injection. Within one h, each of the blood samples was centrifuged at 10,000 rpm at 4° C. for 20 min (the blood sample was stored on an ice box prior to the centrifugation), and the supernatant, i.e., the plasma, was stored in a refrigerator at −20° C. for LC-MS/MS analysis.

For data set [7], the system named is secretion levels of IL-6 in PBMC cells. The data set can be described thus: Inhibition of LPS+IL-1β-induced IL-6 secretion in PBMC (IL-6 ELISA). The note with it: human PBMC, 24 h compound pre-incubation, 20 h stimulation. The data set is classed as cell-based. Background: In an ELISA, binding on a coated surface is turned into a signal by an enzyme label.
Data set [8] in a line: Pharmacokinetic experiment on mice (iv and ig). The settings on record: mouse, plasma, BALB/c Mice; for Cmax: read-out: Peak plasma concentration Cmax. The data set is classed as in vivo.

Molecules are shown by their SMILES.

What is called IC50 is the concentration at which inhibition is half-maximal. Read a high IC50 as a need for much substance. Turning to `COc1cc2nn([C@H]3CC[C@H](CN4CCC(c5cccc6c5c(C)nn6C5CCC(=O)NC5=O)CC4)CC3)cc2cc1NC(=O)c1cccc(C(F)(F)F)n1` (stereo partly drawn) [TM-25], the “Mouse liver microsome (t1/2, min)” value in data set [1] is 128.7 min. The “Human liver microsome (t1/2, min)” value in data set [2] was 117.1 min. This compound gave an IC50 in data set [3] of 28 nM.
As usually defined, the half-life is the time in which the quantity being followed falls by half. Broadly, the AUC is the area under the concentration-time curve, a measure of exposure. The AUC(0-inf) is the area under the concentration-time curve extrapolated to infinity. By bioavailability is commonly meant the share of a dose that reaches the circulation, judged against a reference dose that is usually intravenous. `Cc1nn(C2CCC(=O)NC2=O)c2cccc(N3CCN(C[C@H]4CC[C@H](n5cc6cc(NC(=O)c7cnn8cccnc78)c(N7CCOCC7)cc6n5)CC4)CC3)c12` (stereo partly drawn) [TM-33]: the half-life at 1 µM in data set [4] worked out at 0.782 h; in data set [5], 1.3 h. The 50% inhibitory concentration (IC50) was determined as 13 nM in data set [3] and 10.2 nM in data set [7]. The area under the curve (AUC) in data set [6] (iv, 1.00 mg/kg) amounted to 2250 ng·h/mL; in data set [6] (po, ig, 5.00 mg/kg), 13800 ng·h/mL; in data set [8] (po, ig, 3.00 mg/kg), 135000 ng·h/mL; in data set [8] (iv, 1.00 mg/kg), 63100 ng·h/mL. The total exposure AUC(0-inf) stood at 2300 ng·h/mL in data set [6] (iv, 1.00 mg/kg); 10600 ng·h/mL in data set [6] (po, ig, 5.00 mg/kg); 289000 ng·h/mL in data set [8] (po, ig, 3.00 mg/kg); 104000 ng·h/mL in data set [8] (iv, 1.00 mg/kg). Besides, the Cmax in data set [6] (iv, 1.00 mg/kg) came to 530 ng/mL; in data set [6] (po, ig, 5.00 mg/kg) it was 1100 ng/mL; in data set [8] (po, ig, 3.00 mg/kg), 12400 ng/mL; in data set [8] (iv, 1.00 mg/kg) it was 6800 ng/mL. The bioavailability in data set [6] (po, ig 5.00 mg/kg vs iv 1.00 mg/kg, read-out: Oral bioavailability Fobs (%)) stood at 91.9%; in data set [8] (po, ig 3.00 mg/kg vs iv 1.00 mg/kg, read-out: Oral bioavailability Fobs (%)) it was 92.1%.

For the origin of these results see patent US20260146044A1, “AROMATIC COMPOUND, PHARMACEUTICAL COMPOSITION CONTAINING SAME, AND USE THEREOF” (Increland, priority 2023, published 2026).
